Key:
Neuromedin-K receptor = biological target: T1, Neuromedin-K receptor (Homo sapiens, UniProt P29371); experiment: Compound was tested for its ability to displace [3H]senktide binding to human Tachykinin receptor 3 expressed in CHO cells; assay type: cell-based
T1 sequence (P29371 whole entry): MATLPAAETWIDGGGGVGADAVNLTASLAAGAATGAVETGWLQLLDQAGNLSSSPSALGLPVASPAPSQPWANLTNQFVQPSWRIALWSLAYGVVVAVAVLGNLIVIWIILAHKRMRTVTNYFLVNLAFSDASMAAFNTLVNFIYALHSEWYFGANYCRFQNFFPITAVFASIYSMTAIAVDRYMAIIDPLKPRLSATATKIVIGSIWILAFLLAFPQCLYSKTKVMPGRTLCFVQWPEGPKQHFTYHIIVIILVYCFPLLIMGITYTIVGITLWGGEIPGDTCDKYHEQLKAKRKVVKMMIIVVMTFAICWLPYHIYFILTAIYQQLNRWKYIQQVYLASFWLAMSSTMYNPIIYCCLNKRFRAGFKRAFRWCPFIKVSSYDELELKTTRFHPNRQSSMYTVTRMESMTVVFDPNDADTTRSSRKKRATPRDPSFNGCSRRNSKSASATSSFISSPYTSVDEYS

Interstitial collagenase = biological target: T2, Interstitial collagenase (Homo sapiens, UniProt P03956); experiment: Inhibition of human recombinant MMP-I
T2 sequence (P03956 whole entry): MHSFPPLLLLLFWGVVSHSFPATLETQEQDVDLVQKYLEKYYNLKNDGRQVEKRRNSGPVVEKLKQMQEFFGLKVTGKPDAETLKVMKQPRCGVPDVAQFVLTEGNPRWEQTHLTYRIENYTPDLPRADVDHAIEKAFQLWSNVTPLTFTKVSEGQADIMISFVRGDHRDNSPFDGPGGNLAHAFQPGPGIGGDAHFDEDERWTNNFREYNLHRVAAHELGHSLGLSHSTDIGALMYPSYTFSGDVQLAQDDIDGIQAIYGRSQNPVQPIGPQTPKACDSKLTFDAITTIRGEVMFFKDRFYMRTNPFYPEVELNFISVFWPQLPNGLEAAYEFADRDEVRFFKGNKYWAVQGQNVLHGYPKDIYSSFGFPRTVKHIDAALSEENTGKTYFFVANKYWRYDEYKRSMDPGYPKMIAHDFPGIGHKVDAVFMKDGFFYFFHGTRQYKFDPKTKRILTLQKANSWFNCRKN

IC50 (Neuromedin-K receptor)	IC50 (Interstitial collagenase)	SMILES
60 µM		O=C(/C=C/c1ccccc1)N1CCN(C(c2ccccc2)c2ccc(Cl)cc2)CC1 (configuration not stated)
	55 µM	N#Cc1ccc(C(=O)Nc2ccccc2N2CCCCC2)cc1
